Measured values as given in PubChem BioAssay (NCI).
“And” between values parts separate entries of the source, which are not always exact repeats. Equal entries are not always repeated.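 These data come from cells grown in 96-well plates and exposed to compound for 48 hours at five concentrations. GI50: concentration for 50% inhibition of growth. Definition used: TGI = concentration required for complete inhibition of growth.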

Key:
Assay in all cases: NCI anticancer screen, dose series, 48 h
OVCAR-3 ovarian = tested on: OVCAR-3 ovarian
SNB-75 CNS = tested on: SNB-75 CNS
K-562 leukemia = tested on: K-562 leukemia
HOP-62 NSCLC = tested on: HOP-62 NSCLC
HL-60(TB) leukemia = tested on: HL-60(TB) leukemia
SF-295 CNS = tested on: SF-295 CNS
MDA-MB-231 breast = tested on: MDA-MB-231 breast
UO-31 renal = tested on: UO-31 renal
DLD-1 colon = tested on: DLD-1 colon
XF 498 CNS = tested on: XF 498 CNS

## NC(=S)N/N=C/c1ccc(O)cn1
OVCAR-3 ovarian
  GI50: 19.9 µM and 5.16 µM
  TGI: > 1500 µM and 240 µM
SNB-75 CNS
  GI50: 13.8 µM
  TGI: 60.4 µM and 227 µM
K-562 leukemia
  GI50: 12.3 µM and 7.25 µM
  TGI: 55.2 µM and 439 µM
HOP-62 NSCLC
  GI50: 10.6 µM and 5.65 µM
  TGI: 35.7 µM and 16.9 µM and 74.6 µM
HL-60(TB) leukemia
  GI50: 13.7 µM
  TGI: 44.7 µM and 21 µM and 21.7 µM
SF-295 CNS
  GI50: 33.7 µM and 31.7 µM
  TGI: 113 µM and 111 µM
MDA-MB-231 breast
  TGI: > 427 µM
UO-31 renal
  GI50: 25.5 µM and 7.24 µM
  TGI: 66.7 µM and 42 µM and 136 µM
DLD-1 colon
  GI50: 39.6 µM and 31 µM
  TGI: > 1500 µM
XF 498 CNS
  GI50: 15.6 µM
  TGI: 94 µM and 168 µM

## CC(=O)OC1CC[C@@]2(C)C(CC[C@]3(C)C2CC=C2[C@@H]4CC(C)(C)CCC4(C)CCC23C)[C@@]1(C)C(=O)O (stereo not given in full)
OVCAR-3 ovarian
  TGI: 37.7 µM
SNB-75 CNS
  TGI: 48.9 µM
K-562 leukemia
  TGI: 61.9 µM
HOP-62 NSCLC
  TGI: 42 µM
HL-60(TB) leukemia
  TGI: 83.5 µM
SF-295 CNS
  TGI: 51.3 µM
MDA-MB-231 breast
  TGI: 44.2 µM
UO-31 renal
  TGI: 35.9 µM
DLD-1 colon
  TGI: 29.3 µM
XF 498 CNS
  TGI: 50.9 µM

## Clc1cccc(N2CCN(CCN3CCc4c([nH]c5ccccc45)C3c3cccnc3)CC2)c1 (stereo not given)
OVCAR-3 ovarian
  TGI: > 100 µM
SNB-75 CNS
  TGI: > 76.4 µM
K-562 leukemia
  TGI: > 65.4 µM
HOP-62 NSCLC
  TGI: > 86.8 µM
HL-60(TB) leukemia
  TGI: > 100 µM
SF-295 CNS
  TGI: > 100 µM
MDA-MB-231 breast
  TGI: > 100 µM
UO-31 renal
  TGI: > 100 µM
DLD-1 colon
  TGI: > 100 µM
XF 498 CNS
  TGI: > 100 µM

## CCOC(=O)NC1=C(N2CC2)C(=O)C(NC(=O)OCC)=C(N2CC2)C1=O
OVCAR-3 ovarian
  GI50: 5.91 µM and 5.8 µM
  TGI: 17.4 µM and 12.9 µM and 16.1 µM
SNB-75 CNS
  GI50: 9.24 µM
  TGI: 23.2 µM and 29.9 µM and 52 µM
K-562 leukemia
  GI50: 6.13 µM
  TGI: 20.8 µM and 38.3 µM and 17 µM
HOP-62 NSCLC
  GI50: 1.56 µM and 1.75 µM
  TGI: 15.1 µM and 7.44 µM and 2.9 µM
HL-60(TB) leukemia
  GI50: 1.85 µM and 0.403 µM
  TGI: 11 µM and 4 µM and 1.49 µM
SF-295 CNS
  GI50: 1.86 µM
  TGI: 25 µM and 23.3 µM and 31.4 µM
MDA-MB-231 breast
  TGI: 15.3 µM
UO-31 renal
  GI50: 11.1 µM and 4 µM
  TGI: 25 µM and 21.7 µM and 22.4 µM
DLD-1 colon
  GI50: 8.56 µM
  TGI: 38 µM and 78.9 µM
XF 498 CNS
  TGI: 8.75 µM

## CC(C)[NH-].CC(C)[NH-].O.O.[Cl][Pt+2][Cl]
OVCAR-3 ovarian
  GI50: 21.1 µM
  TGI: 59.1 µM
SNB-75 CNS
  GI50: 94.4 µM
  TGI: 308 µM
K-562 leukemia
  GI50: 39.1 µM
  TGI: 179 µM
HOP-62 NSCLC
  GI50: 55.8 µM
  TGI: 194 µM
HL-60(TB) leukemia
  GI50: 15.3 µM
  TGI: 83.7 µM
SF-295 CNS
  GI50: 42.9 µM
  TGI: 149 µM
MDA-MB-231 breast
  GI50: 63.8 µM
  TGI: 254 µM
UO-31 renal
  GI50: 147 µM
  TGI: 356 µM
DLD-1 colon
  GI50: 45.1 µM
  TGI: 238 µM
XF 498 CNS
  GI50: 16 µM
  TGI: 51.6 µM

## O=C(NCCCCCCNC(=O)n1cc(F)c(=O)[nH]c1=O)NCCCOCCOCCOCCOCCOCCOCCOCCOCCOCCOCCOCCOCCOCCOCCOCCOCCOCCOCCOCCOCCOCCCNC(=O)C(O)C(O)C(OC1OC(CO)C(O)C(O)C1O)C(O)CO (stereo not given)
OVCAR-3 ovarian
  TGI: > 100 µM
SNB-75 CNS
  TGI: > 43.7 µM
K-562 leukemia
  TGI: > 100 µM
HOP-62 NSCLC
  TGI: > 100 µM
HL-60(TB) leukemia
  TGI: > 100 µM
SF-295 CNS
  TGI: > 100 µM
MDA-MB-231 breast
  TGI: > 100 µM
UO-31 renal
  TGI: > 100 µM
DLD-1 colon
  TGI: > 100 µM
XF 498 CNS
  TGI: > 100 µM

## OC(C1CO1)C(O)C1CO1 (stereo not given)
OVCAR-3 ovarian
  GI50: 101 µM
  TGI: 98.7 µM and 286 µM
SNB-75 CNS
  GI50: 32.2 µM
  TGI: 116 µM and 166 µM
K-562 leukemia
  GI50: 62.5 µM
  TGI: 150 µM
HOP-62 NSCLC
  GI50: 8.57 µM
  TGI: 36.5 µM and 99.7 µM
HL-60(TB) leukemia
  GI50: 2.33 µM
  TGI: 65.2 µM and 49.5 µM
SF-295 CNS
  GI50: 11.9 µM and 1.59 µM
  TGI: 123 µM and 126 µM
MDA-MB-231 breast
  GI50: 63 µM
  TGI: 69.6 µM and 377 µM
UO-31 renal
  GI50: 37 µM
  TGI: 112 µM and 199 µM
DLD-1 colon
  TGI: > 150 µM
XF 498 CNS
  TGI: 133 µM
